Test results: patent US20260125375A1 (Pfizer Inc., priority 2022, published 2026)
Read-outs that look alike come from different tables or passages of the source.

Key:
CBL-B (residues 36-427) = target: T1, CBL-B (residues 36-427) (Homo sapiens, UniProt Q13191); experiment: Ligand Displacement Assay (LDA), HTRF competitive binding against BODIPY-labeled fluorescent tracer, CBL-B; settings: geometric mean of the number of tests, read-out: CBL-B Ki (nM) GMean
T1 construct: Purified CBL-B (residues 36-427) and C-CBL (residues 46-435) proteins from baculovirus-infected insect cells; made in house; host or cells: baculovirus-infected insect cells
Summary of the method: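 Terbium-streptavidin donor on BirA-biotinylated, AviTagged protein from baculovirus-infected insect cells; BODIPY tracer as acceptor. Compound titrations were three-fold and duplicated, […] with 2% DMSO final.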

CBL-B = target: T2, CBL-B (Homo sapiens, UniProt Q13191); experiment: Jurkat HiBit-IL2 assay (c-CBL KO), reporter cell line expressing CBL-B only; format: cell-based; settings: geometric mean, read-out: C-CBL KO EC50 (nM) GMean
T2 construct: endogenous in cells; host or cells: Jurkat HiBit-IL2 reporter cells, C-CBL knocked out by CRISPR
Summary of the method: (§1)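 IL-2 secretion was measured by HiBiT luminescence after 1 h compound exposure (0.1% DMSO) and 4 h TCR/CD28 stimulation (final anti-CD3 1 μg/ml, anti-CD28 2 μg/ml, 37 °C) of Jurkat reporters lacking c-CBL or CBL-B. EC50 came from fold-of-effect versus stimulated-only cells, as geometric means across tests.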

C-CBL = target: T3, C-CBL (Homo sapiens, UniProt P22681); experiment: Jurkat HiBit-IL2 assay (CBL-B KO), reporter cell line expressing C-CBL only; format: cell-based; settings: geometric mean, read-out: CBL-B KO EC50 (nM) GMean
T3 construct: endogenous in cells; host or cells: Jurkat HiBit-IL2 reporter cells, CBL-B knocked out by CRISPR
Summary of the method: as §1

[1] = c-CBL KO (CBL-B only), anti-CD3/anti-CD28 stimulation 4 hours, Table 16a
[2] = CBL-B KO (C-CBL only), anti-CD3/anti-CD28 stimulation 4 hours, Table 16a
[3] = C-CBL KO (expressing CBL-B only), Table 16b (further repetition)
[4] = CBL-B KO (expressing C-CBL only), Table 16b (further repetition)

Row | SMILES | Ki (CBL-B (residues 36-427)) [nM] | EC50 (CBL-B; [1]) [nM] | EC50 (C-CBL; [2]) [nM] | EC50 (CBL-B; [3]) [nM] | EC50 (C-CBL; [4]) [nM]
1 | CC(c1nc(C(F)(F)F)cc2c(-c3cccc(C4(Cc5nncn5C)COC4)c3)n[nH]c12)N1CCC[C@H](C)C1 (single isomer, unassigned) [Example C19] | 10.8 | 56 | 439 |  | 
2 | Cn1cnnc1[C@@H](c1cccc(-c2n[nH]c3cnc(C(F)(F)F)cc23)c1)C1CCC1 [Example A1, 3-{3-[(R)-cyclobutyl(4-methyl-4H-1,2,4-triazol-3-yl)methyl]phenyl}-5-(trifluoromethyl)-1H-pyrazolo[3,4-c]pyridine] | 74.4 | > 2990 | > 5280 | 1810 | 4500
3 | CC(c1nc(C(F)(F)F)cc2c(-c3cccc(C4(Cc5nncn5C)COC4)c3)n[nH]c12)N1CCC[C@H](C)C1 (single isomer, unassigned) [Example C20] | 2.4 | 12 | 78 | 15 | 56
4 | C[C@@H](NC1CCCC1)c1nc(C(F)(F)F)cc2c(-c3cccc([C@H](c4nncn4C)C4CCC4)c3)n[nH]c12 (single isomer, unassigned) [Example C11] | 0.6 | 5 | 46 | 6 | 32
5 | C[C@@H](NC1CCC1)c1nc(C(F)(F)F)cc2c(-c3cccc(C4(Cc5nncn5C)COC4)c3)n[nH]c12 [Example C16] | 10 | 75 | 689 |  | 
6 | C[C@H](NC1CC(F)(F)C1)c1nc(C(F)(F)F)cc2c(-c3cccc([C@H](c4nncn4C)C4CCC4)c3)n[nH]c12 (single isomer, unassigned) [Example D90] | 8.9 |  |  | 73 | 313
7 | C[C@H](N[C@H]1CCC(F)(F)C1)c1nc(C(F)(F)F)cc2c(-c3cccc(C4(Cc5nncn5C)COC4)c3)n[nH]c12 (single isomer, unassigned) [Example C12] | 0.9 | 4 | 25 | 8 | 16
8 | C[C@H](c1nc(C(F)(F)F)cc2c(-c3cccc(C4(Cc5nncn5C)COC4)c3)n[nH]c12)N1CC[C@@H](F)C1 (single isomer, unassigned) [Example D10] | 6.6 | 102 | 595 |  | 
9 | C[C@@H](N[C@H]1C[C@@H](F)C1)c1nc(C(F)(F)F)cc2c(-c3cccc([C@H](c4nncn4C)C4CCC4)c3)n[nH]c12 (single isomer, unassigned) [Example C96] | 9.2 |  |  | 76 | 574
10 | C[C@H](c1nc(C(F)(F)F)cc2c(-c3cccc(C4(Cc5nncn5C)COC4)c3)n[nH]c12)N1CCO[C@@H](C)C1 (single isomer, unassigned) [Example D12] | 15.3 | 612 | 973 |  | 
11 | Cn1cnnc1[C@@H](c1cccc(-c2n[nH]c3c(CN[C@H]4CCC[C@@H]4O)nc(C(F)(F)F)cc23)c1)C1CCC1 [Example C4, (1S,2S)-2-({[3-{3-[(R)-cyclobutyl(4-methyl-4H-1,2,4-triazol-3-yl)methyl]phenyl}-5-(trifluoromethyl)-1H-pyrazolo[3,4-c]pyridin-7-yl]methyl}amino)cyclopentan-1-ol] | 3.3 | 114 | 1050 |  | 
12 | CC1CN(Cc2nc(C(F)(F)F)cc3c(-c4cccc(C5(Cc6nncn6C)COC5)c4)n[nH]c23)CCC1(F)F (single isomer, unassigned) [Example C32, 7-{[(3ξ)-4,4-difluoro-3-methylpiperidin-1-yl]methyl}-3-(3-{3-[(4-methyl-4H-1,2,4-triazol-3-yl)methyl]oxetan-3-yl}phenyl)-5-(trifluoromethyl)-1H-pyrazolo[3,4-c]pyridine] | 6.7 | 83 | 1190 | 49 | 110
13 | CC(C)NC(C)c1nc(C(F)(F)F)cc2c(-c3cccc([C@H](c4nncn4C)C4CCC4)c3)n[nH]c12 (single isomer, unassigned) [Example C34] | 8.9 | 67 | 892 | 86 | 428
14 | C[C@@H](N[C@@H]1CCOC1)c1nc(C(F)(F)F)cc2c(-c3cccc([C@H](c4nncn4C)C4CCC4)c3)n[nH]c12 (single isomer, unassigned) [Example D3] | 6 | 47 | 472 | 67 | 333
15 | C[C@@H](N[C@H]1CCC(F)(F)C1)c1nc(C(F)(F)F)cc2c(-c3cccc([C@H](c4nncn4C)C4CCC4)c3)n[nH]c12 [Example C9] | 5 | 32 | 606 | 32 | 176
16 | C[C@@H](N[C@H]1CC[C@@H]1O)c1nc(C(F)(F)F)cc2c(-c3cccc([C@H](c4nncn4C)C4CCC4)c3)n[nH]c12 (single isomer, unassigned) [Example D22] | 0.8 | 5 | 79 | 12 | 91
17 | CC(NC1CNC1)c1nc(C(F)(F)F)cc2c(-c3cccc(C4(Cc5nncn5C)COC4)c3)n[nH]c12 (single isomer, unassigned) [Example C28, N-{(1ξ)-1-[3-(3-{3-[(4-methyl-4H-1,2,4-triazol-3-yl)methyl]oxetan-3-yl}phenyl)-5-(trifluoromethyl)-1H-pyrazolo[3,4-c]pyridin-7-yl]ethyl}azetidin-3-amine] | 33.4 | > 2070 | > 5190 |  | 
18 | C[C@@H](NC1CC(F)(F)C1)c1nc(C(F)(F)F)cc2c(-c3cccc([C@H](c4nncn4C)C4CCC4)c3)n[nH]c12 (single isomer, unassigned) [Example D91] | 6.2 |  |  | 41 | 238
